Read-outs that look alike come from different tables or passages of the source.
Key:
[1] = tested on: MCF-7 (human mammary carcinoma); experiment: Sulforodamine B antiproliferative test, sensitive MCF-7 cells; format: cell-based; conditions: MCF7, MCF-7 sensitive, 24 hours incubation, survival after another 48 hours, read-out: IC50 +/− SD, antiproliferative activity vs sensitive cell, MCF-7
Protocol: (§1) For the cytotoxic activity, proliferation screening tests were used, with different tumour lines, such as MCF-7 (human mammary carcinoma), LoVo (human colon carcinoma), MES-SA (human uterine sarcoma), or K-562 (human chronic myeloid leukaemia).
(§2) The test used was the sulforodamine B test used for screening anticancer products at the National Cancer Institute (Skehan, 1990). The molecules at scalar concentrations over a range from 500 μM to 0.97 μM, were incubated in parallel with different human cell lines for 24 hours. After removing the products, cell survival was investigated after another 48 hours with the NCI test. The antiproliferative capacity of the compounds was quantified in terms of IC50±SD (concentration of the molecule that inhibits 50% of cell survival) processed using a curve fitting program (De Lean et al., 1978).

[2] = tested on: LoVo (human colon carcinoma); experiment: Sulforodamine B antiproliferative test, sensitive LoVo cells; format: cell-based; conditions: 24 hours incubation, survival after another 48 hours, read-out: IC50 +/− SD, antiproliferative activity vs sensitive cell, LoVo
Protocol: as §1, §2

[3] = tested on: MCF-7 resistant cell (MCF-7/Dx, overexpressing P-glycoprotein, resistant to doxorubicin); experiment: Antiproliferative activity vs resistant cells, MCF-7; format: cell-based; conditions: Homo sapiens, MCF7; MCF-7 resistant (doxorubicin-resistant); read-out: IC50 +/− SD, antiproliferative activity vs resistent cell, MCF-7
Protocol: as §2
(§3) The cytotoxicity of the molecules on tumour lines resistant to chemosensitising activity was assessed on various tumour cell lines overexpressing P-glycoprotein and resistant to doxorubicin (100-fold) and cross-resistant to daunorubicin, actinomycin D, mitoxantrone, vincristine, vinblastine, taxol, colchicine, and etoposide. The cytotoxicity of the products was assessed using the same test adopted for the sensitive tumour cells.

[4] = tested on: LoVo resistant cell (LoVo/Dx, overexpressing P-glycoprotein, resistant to doxorubicin); experiment: Antiproliferative activity vs resistant cells, LoVo; format: cell-based; conditions: Homo sapiens, read-out: IC50 +/− SD, antiproliferative activity vs resistent cell, LoVo
Protocol: as §2, §3

MCF-7 cells = experiment: Cell cycle and apoptosis analysis (propidium iodide, FACS) on MCF-7 cells; format: cell-based, human
Protocol: The cell cycle and apoptosis analysis on a tumour line was done by incubating the products for 24 hours at a concentration equal to approximately the IC50 Values with MCF-7 cells. The molecules were removed and the cell cycle and apoptosis were assessed at different times (0, 24, 48 hours). The cells were stained with propidium iodide and analysed with a cytofluorimeter (FACS) ([…] fluorescence activated cell sorter) by means of an argon ion laser set at 488 nm for the excitation. To assess the percentage of cells in the various stages of the cycle, linear DNA histograms were analysed with a cell fit program distributed by the equipment manufacturer. For the analysis of apoptosis, a region was inserted below the G0/G1 peak of the control population and the data were analysed with software supplied by the company (Lysis II-C32).

[5] = Cytotoxicity on endothelial cells (BMEC); format: cell-based, bovine; conditions: bovine, BMEC (bovine medullary endothelial cell) cultures
[6] = tested on: BMEC (bovine medullary endothelial cell); experiment: Cytotoxicity on endothelial cells (BMEC); format: cell-based; conditions: BMEC
[7] = tested on: BMEC (bovine medullary endothelial cell); experiment: Chemotactic assay with the Boyden chamber on BMEC; format: cell-based; conditions: for % inhibition of migration at IC0/D.S.: BMEC, at IC0, chemotactic stimulus 1% bovine serum in DMEM
Protocol: For the antiangiogenic activity the chemotactic assay with the Boyden chamber was performed (Werner F., Goodwin R. H. and Leonard E. J., Journal of Immunological Methods 1980; 33, 239-247), using both bovine aortal endothelial cell (BAEC) cultures and bovine medullary endothelial cell (BMEC) cultures. The assays were performed at IC0 (maximum non-cytotoxic concentration) and the results expressed as % inhibition of migration across a porous filter in response to a chemotactic stimulus (1% bovine serum in DMEM culture medium). This finding was obtained by direct cell count under the optical microscope, and the percentage migration inhibition was calculated according to the formula (T−C/C)×100, where T=mean number of cells migrating in the sample and C=mean number of cells migrating in the control. The control consisted of cells which migrated towards the serum, not treated with the study molecules, and included in every chemotaxis experiment. The data refer to the readings of 5 microscopic fields/well in 4 independent chemotaxis wells per sample.

MCF-7/Dx line = experiment: Potentiation of doxorubicin cytotoxicity (MDR ratio), MCF-7/Dx; format: cell-based, human; conditions: compound at 11 μM
Protocol: as §3
(§4) Later, the products were assayed at a concentration lower than or equal to the one that inhibits 10% of cell survival. At this concentration, the molecules were tested in parallel in the absence and presence of doxorubicin. MDR ratios were calculated for the IC50 values in order to establish the degree of potentiation of the cytotoxic activity of doxorubicin induced by the product (MDR ratio) (De Lean et al. (1978) A. J. Physiol. 235, E97-102); (Skehan et al. (1990) J. Natl. Cancer Inst. 82, 1107-1112).

LoVo/Dx cell line = experiment: Potentiation of doxorubicin cytotoxicity (MDR ratio), LoVo/Dx; format: cell-based, human; conditions: compound at 11 μM
Protocol: as §3, §4

[8] = read-out: IC50 (μM), cytotoxicity on BMEC

SMILES | IC50 [1] | IC50 [2] | IC50 [3] | IC50 [4] | IC0 (μM) (maximum non-cytotoxic concentration) [6] | % inhibition of migration at IC0/D.S. [7] | melting point | IC50 [5, 8] | also measured
c1ccc2c(C3CCCCc4c3[nH]c3ccccc43)c[nH]c2c1 (racemic) [ST1381, 1-(indol-3-yl)-indo [2,3a]-cycloheptan.] | 28.5 µM | 22.5 µM | 28.4 µM | 25.2 µM | 30 µM | −61.7% | – | – | increases and blocked in G0/G1 (% of the cell line) (MCF-7 cells; MCF-7, 30 μM, relative to control): 32%; G0/G1 (%) (MCF-7 cells; MCF-7, compound at 30 μM): 30 μM = 57.7%; G2 + M (%) (MCF-7 cells; MCF-7, compound at 30 μM): 30 μM = 10.1%; S(%) (MCF-7 cells; MCF-7, compound at 30 μM): 30 μM = 32.2%; Apoptosis 48 h (%) (MCF-7 cells; MCF-7, compound at 30 μM): 30 μM = 3.3%; IC50 ([5]; endothelial cell, read-out: cytotoxicity vs endotelial cell (IC)): > 100 µM; IC50 [6]: > 100 µM; chemotaxis of endothelial cells (in words) [7]: active for the chemotaxys; chemotaxis of endothelial cells (in words) ([7]; listed as ST 1381): the better anti-chemiotactic compound
OCCCC(c1c[nH]c2cc3c(cc12)OCO3)c1c[nH]c2cc3c(cc12)OCO3 [ST1730, 4-hydroxy-1,1-di-(5′,6′-methylendioxy-indol-3-yl)-butane] | – | – | – | – | – | – | 240 °C (dec.) | – | –
c1ccc2c(C3CCCc4[nH]c5ccccc5c43)c[nH]c2c1 (racemic) [ST1729, 4-(1H-indol-3-yl)-tetrahydro-1H-carbazole] | 35 µM | 50.5 µM | – | – | 25 µM | −40 +/− 3% | 182 °C | 80 µM | –
c1[nH]c2cc3c(cc2c1C1CCCc2c1[nH]c1cc4c(cc21)OCO4)OCO3 (racemic) [ST1751, 1-(5′,6′-methylendioxy-1H-indol-3-yl)-6,7-methylendioxy-tetrahydro-1H-carbazole] | – | – | 58.6 µM | – | – | – | 200 °C (dec.) | – | –
CC1(C)OCC(C2c3c([nH]c4ccccc34)C(c3c[nH]c4ccccc34)C3OC(C)(C)OC32)O1 (racemic) [ST1372, 1-(indol-3-yl)-2,3-O-isopropylidene-4-(2,3-O-isopropylidene-ethyl)-tetrahydrocarbazole] | 21.1 µM | 21.7 µM | 21.1 µM | 21.7 µM | – | – | 204 to 206 °C (dec.) | – | increases and blocks in G0/G1 (% of the cell) (MCF-7 cells; MCF-7, 20 μM, relative to control): 23%; increases and blocks in G0/G1 (% of the cell) (MCF-7 cells; MCF-7, 40 μM, relative to control): 32%; G0/G1 (%) (MCF-7 cells; MCF-7, compound at 20 μM): 20 μM = 54.4%; G2 + M (%) (MCF-7 cells; MCF-7, compound at 20 μM): 20 μM = 11.4%; S(%) (MCF-7 cells; MCF-7, compound at 20 μM): 20 μM = 34.2%; G0/G1 (%) (MCF-7 cells; MCF-7, compound at 40 μM): 40 μM = 57.8%; G2 + M (%) (MCF-7 cells; MCF-7, compound at 40 μM): 40 μM = 5.4%; S(%) (MCF-7 cells; MCF-7, compound at 40 μM): 40 μM = 36.8%; Apoptosis 48 h (%) (MCF-7 cells; MCF-7, compound at 40 μM): 40 μM = 16%; increase of the activity of Doxorubicin (MDR ratio) (MCF-7/Dx line): 3,5 times; increase of the activity of Doxorubicin (MDR ratio) (LoVo/Dx cell line): 3,5 times
c1ccc(COc2ccc3[nH]cc(C4CCCCc5[nH]c6ccc(OCc7ccccc7)cc6c54)c3c2)cc1 (racemic) [ST1778, 5-(5″-benzyloxy-indol-3-yl)-5′-benzyloxy-indo[2,3a]-cycloheptan.] | 28.5 µM | 54.5 µM | 71 µM | 65.1 µM | 25 µM | −40 +/− 4% | – | 50 µM | –
c1[nH]c2cc3c(cc2c1C1CCCCc2c1[nH]c1cc4c(cc21)OCO4)OCO3 (racemic) [ST1749, 1-(5″, 6″-methylendioxy-indol-3-yl)-5′,6′-methyleridioxy-indo [2,3-a]-cycloeptane] | – | – | – | – | 100 µM | −40 +/− 3% | 184 °C (dec.) | > 200 µM | –
c1ccc2c(C3CCCCc4[nH]c5ccccc5c43)c[nH]c2c1 (racemic) [ST1621, 5-(indol-3-yl)-indo [2,3a]-cycloheptan.] | 22.5 µM | 34.8 µM | 68.3 µM | 23.8 µM | 0.1 µM | −43 +/− 4% | – | 10 µM | –
c1[nH]c2cc3c(cc2c1C1CCCc2[nH]c4cc5c(cc4c21)OCO5)OCO3 (racemic) [ST1777, 4-(5′,6′-methylendioxy-1H-indol-3-yl)-6,7-methylendioxy-tetrahydro-1H-carbazole] | 0.96 µM | 0.64 µM | – | – | – | – | – | – | –
c1ccc2c(C3CCCc4c3[nH]c3ccccc43)c[nH]c2c1 (racemic) [ST1728, 1-(1H-indol-3-yl)-tetrahydro-1H-carbazole] | 22 µM | 22.8 µM | – | – | – | – | 207 °C | – | –
Oc1ccc2[nH]cc(C3CCCCc4c3[nH]c3ccc(O)cc43)c2c1 (racemic) [ST1783, 1-(5″-hydroxy-1H-indol-3-yl)-5′-hydroxy-indo[2,3a]-cycloheptan.] | 27 µM | 29 µM | 39 µM | – | 10 µM | −46% | – | 60 µM | –
OCCCCC(c1c[nH]c2cc3c(cc12)OCO3)c1c[nH]c2cc3c(cc12)OCO3 [ST1422, 5-hydroxy-1,1-di-(5,6-methylendioxy-indol-3-yl)-pentane] | – | – | – | – | – | – | 200 °C (dec.) | – | –
c1ccc(COc2ccc3[nH]cc(C4CCCCc5c4[nH]c4ccc(OCc6ccccc6)cc54)c3c2)cc1 (racemic) [ST1765, 1-(5″-benzyloxy-indol-3-yl)-5′-benzyloxy-indo[2,3a]-cycloheptan.] | 11.5 µM | 10.5 µM | 24.8 µM | 17 µM | – | – | 286 °C (dec.) | – | –
OCCCCC(c1cc2cc3c(cc2[nH]1)OCO3)c1c[nH]c2cc3c(cc12)OCO3 (racemic) [ST1423, (R,S)-5-hydroxy-1,1-di-(5′,6′-methylendioxy-indol-2-yl,5 ″,6″-methylendioxy-indol-3-yl)-pentane] | – | – | – | – | – | – | 220 °C (dec.) | – | –
